According to US8367680B2, “Antibacterial small molecules and methods for their synthesis” (Wisconsin Alumni Research Foundation, priority 2008, dated 2013):
Converted amounts (≈) assume the structure as drawn. Where two headings read alike, the source gives them in different places.

Test system: MRSA
Conditions: Staphylococcus aureus
Protocol: Macroarray compounds are dissolved in DMSO and pipetted into a 96-well multititer plate containing Luria-Bertani (LB) broth inoculated with MRSA. The final concentrations of the compounds selected, e.g., 50 μM, 25 μM, 12.5 μM, 6.3 μM, and 3.1 μM, with a final DMSO concentration of 2.5% for each compound in a given well. The plate is incubated with shaking at 37° C. for 18 h, and the absorbance is measured at 595 nm using a plate-reader. The approximate MIC can be determined by the complete absence of bacterial growth relative to our negative control (LB broth with no bacteria added).
For estimated MIC determination, DMSO was added to the dried compound residue obtained from a single spot to afford ca. 100 μL of a 2 mM stock solution. Aliquots (5 μL) of these solutions were added to a 96-well plate, followed by 195 μL of diluted S. aureus 10390 (10^6 CFUs/mL) to yield ca. 50 μM final concentrations. The plates were swirled for 1 h to ensure compound dissolution, incubated for 12 h at 37° C., and the absorbance at 595 nm was recorded using a plate reader. […] Actual MIC values were determined for lead compounds resynthesized in solution using an analogous procedure with solutions of known concentration.
An aliquot of DMSO (ca. 100 μL depending on the loading of the parent hydroxyacetophenone) was added to the dried compound residue obtained after TFA cleavage and elution from a single spot. This afforded a 2.0 mM “spot stock” solution for each spot.
For estimated MIC screens, 5.0 μL portions of the “spot stock” solutions were added to the appropriate wells in a sterile, polystyrene 96-well plate to yield ca. 50 μM solutions (dependent on the initial loading of hydroxyacetopheneone and compound purity). […] All estimated MIC assays were performed in quadruplicate. Note: the MIC value is defined as the lowest concentration where no bacterial growth occurs.
This assay procedure is based in part on the method reported by Strøm et al. (Strøm, M. B.; Haug, E. B.; Skar, M. L.; Stensen, W.; Stiberg, T.; Svendsen, J. S. J. Med. Chem. 2003, 46, 1567-1570.) A 400 μL portion of overnight S. aureus 10390 culture was diluted with 100 mL of sterile LB broth to give ca. 10^6 CFUs per mL. Aliquots (195 μL) of this solution were added to all of the wells in a sterile 96-well plate (except for the negative control wells; 195 μL of sterile LB broth were added to these wells). The plates were placed on an orbital shaker table and gently swirled for 1 h to ensure compound dissolution, and then incubated (without shaking) for 12 h at 37° C. The absorbance at 595 nm was recorded using a plate reader.

NC(=O)COc1cccc(C(=O)/C=C/c2cccc(C(F)(F)F)c2)c1 [Compound B18]
MIC (read-out: Solution MIC): 54 ± 1 µM (≈ 18.9 µg/mL) | MIC (read-out: Support MIC): 25 to 50 µM (≈ 8.73 to 17.5 µg/mL)

O=C(O)c1cn(C2CC2)c2cc(N3CCNCC3)c(F)cc2c1=O [ciprofloxacin]
MIC (read-out: Solution MIC): 0.6 ± 0.2 µM (≈ 0.199 µg/mL)

CC(=O)NC[C@H]1CN(c2ccc(N3CCOCC3)c(F)c2)C(=O)O1 [linezolid]
MIC (read-out: Solution MIC): 5 ± 1 µM (≈ 1.69 µg/mL)
